Results on five compounds are retold here after US7659298B2, “Pyrazole derivatives and use thereof as orexin receptor antagonists” (sanofi-aventis, priority 2003, dated 2010).

Where no end group is shown, it is not given here.

Data set [1] has as its target T1, human recombinant orexin-1 (hr-OX-1) receptor (Homo sapiens, UniProt O43613).
T1 construct: expressed in transfected cells; host or cells: CHO cells (CHO-hr-OX-1), purified plasma membrane fraction
T1 sequence (O43613 1-425): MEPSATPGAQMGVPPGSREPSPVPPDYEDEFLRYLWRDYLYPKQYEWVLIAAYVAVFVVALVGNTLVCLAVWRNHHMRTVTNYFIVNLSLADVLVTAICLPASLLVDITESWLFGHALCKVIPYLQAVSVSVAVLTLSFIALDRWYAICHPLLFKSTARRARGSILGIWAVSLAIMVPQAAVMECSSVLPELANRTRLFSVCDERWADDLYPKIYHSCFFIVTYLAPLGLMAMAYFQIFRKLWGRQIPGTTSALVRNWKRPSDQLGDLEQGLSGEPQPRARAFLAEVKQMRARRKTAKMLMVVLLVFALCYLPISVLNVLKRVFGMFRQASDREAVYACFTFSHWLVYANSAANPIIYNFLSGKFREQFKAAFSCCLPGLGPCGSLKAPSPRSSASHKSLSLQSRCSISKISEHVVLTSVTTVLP
As to the kind of experiment: hr-125I-orexin-A radioligand competition binding, orexin-1 receptor. The following applies: read-out: Orex-1 IC50. The protocol:
(§1) In vitro radioligand binding assays were used for determination of the affinities of the compounds for both the orexin-1 and orexin-2 receptors.
(§2) In the frame of hr-^125I-orexin-A radioligand competition (displacement) experiments a fixed concentration of hr-^125I-orexin-A is incubated with increasing concentrations of unlabeled test compound in the presence of highly purified plasmamembranes bearing either the human recombinant orexin-1 (hr-OX-1) or the human recombinant orexin-2 (hr-OX-2) receptors. Specific binding of hr-^125I-orexin-A to plasmamembranes is measured at each concentrations of the unlabeled compound and thus a competition curve is generated. The concentration of unlabeled compound displacing 50% of specific binding (IC50) is calculated. In case of competitive interaction the binding affinity constant of the unlabeled compound (KI) is calculated according to the Cheng-Prusoff equation ([…]. Affinity of unlabeled compound for the receptor is equal to 1/KI.
(§3) Culturing the Chinese hamster ovarian cells expressing human recombinant orexin-1 or orexin-2 receptor proteins (CHO-hr-OX-1 or CHO-hr-OX-2 cells) was carried out in cell culture medium (MEM medium, supplemented with 40 mg/l prolin, 20 mg/l gentamycin, 300 mg/l geneticin, 10% dialysed fetal calf serum).
(§4) Adherent cells were plated into Greiner flasks (175 cm^2). 4-6 days later culture medium was removed and cells were scarped in calcium- and magnesium-free phosphate buffered saline (PBS, 20 ml/flask). The cell suspension was centrifuged at 1,000 g for 5 minutes (4° C.). The resulting pellet was resuspended and homogenized with a teflon pestle (4° C.), then layered onto a discontinous sucrose gradient and centrifuged at 105,000 g. […]
(§5) Serial dilution series were prepared from stock solutions (100% DMSO) with binding assay buffer in such a way that each samples contained a final concentration of 1% of DMSO in the receptor binding reaction mixture. […] The radioactivity remained on the filter was counted in a gamma counter (Wallac Automatic Gamma Counter 1470 Wizard).
In general terms: In a radioligand displacement assay an active substance lowers the binding of a labelled ligand.

In data set [2] the target is T2, human recombinant orexin-2 (hr-OX-2) receptor (Homo sapiens, UniProt O43614).
T2 construct: expressed in transfected cells; host or cells: CHO cells (CHO-hr-OX-2), purified plasma membrane fraction
T2 sequence (O43614 1-444): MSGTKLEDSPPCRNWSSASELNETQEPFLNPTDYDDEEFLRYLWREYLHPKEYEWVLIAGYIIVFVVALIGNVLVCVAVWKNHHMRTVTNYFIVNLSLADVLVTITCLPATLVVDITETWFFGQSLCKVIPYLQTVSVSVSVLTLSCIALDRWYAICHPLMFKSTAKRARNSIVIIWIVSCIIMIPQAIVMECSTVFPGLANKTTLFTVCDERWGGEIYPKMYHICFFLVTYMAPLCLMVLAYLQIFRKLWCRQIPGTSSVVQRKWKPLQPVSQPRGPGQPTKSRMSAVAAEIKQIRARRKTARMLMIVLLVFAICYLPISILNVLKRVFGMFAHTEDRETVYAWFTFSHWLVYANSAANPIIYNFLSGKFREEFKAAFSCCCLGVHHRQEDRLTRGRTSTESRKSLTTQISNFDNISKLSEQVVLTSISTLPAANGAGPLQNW
Put plainly: hr-125I-orexin-A radioligand competition binding, orexin-2 receptor. Conditions: read-out: Orex-2 IC50. The protocol:
as §1, §2, §3, §4, §5

Another data set has as its system orexin-1 receptors. Conditions: cited from earlier work.

The IC50 is the concentration that gives 50% inhibition. Take `Cn1nc(-c2ccccc2)c(CSc2ccccc2C(=O)Nc2ccc3ccccc3c2)c1Cl`: the IC50 was 0.033 µM in data set [1] and 0.156 µM in data set [2].

For `Cn1nc(-c2ccncc2)c(COc2ccccc2C(=O)Nc2cnc3ccccc3c2)c1Cl` [2-(5-Chloro-1-methyl-3-pyridin-4-yl-1H-pyrazol-4-ylmethoxy)-N-quinolin-3-ylbenzamide], the IC50 in data set [1] amounted to 0.051 µM; in data set [2] it was 1.1 µM.

As for `Cn1nc(-c2cccnc2)c(CCc2ccccc2C(=O)Nc2cnc3ccccc3c2)c1Cl` [2-[2-(5-Chloro-1-methyl-3-pyridin-3-yl-1H-pyrazol-4-yl)ethyl]-N-quinolin-3-ylbenzamide], the values for the IC50 in data set [1] and in data set [2] were 0.057 µM and 0.68 µM, respectively.

Broadly, the melting point is the temperature of the solid-liquid transition. `Cn1nc(-c2ccccc2)c(COc2ccccc2C(=O)Nc2cnc3ccccc3c2)c1Cl` [Example 65, 2-(3-Phenyl-5-chloro-1-methyl-1H-pyrazol-4-ylmethoxy)-N-quinolin-3-ylbenzamide] returned a melting point of 170 °C.

Consider “orexin A: "Orexin A consists of 33 aminoacid residues with two intramolecular disulphide bridges" (QPLPDCCRQKTCSCRLYELLHGAGNHAAGILTL; disulfide (positions not given here); ends not checked; UniProt O43612 34-66, looked up)”, for which the “fold more effective on the orexin-1 receptors compared to orexin B” value in the data set on orexin-1 receptors is given as 10-50 fold.
